This is an account of results in PMC9250534, “Synthesis and direct assay of large macrocycle diversities by combinatorial late-stage modification at picomole scale” (Nature Communications, 2022).

Sequence of MDM2 (Q00987 whole entry): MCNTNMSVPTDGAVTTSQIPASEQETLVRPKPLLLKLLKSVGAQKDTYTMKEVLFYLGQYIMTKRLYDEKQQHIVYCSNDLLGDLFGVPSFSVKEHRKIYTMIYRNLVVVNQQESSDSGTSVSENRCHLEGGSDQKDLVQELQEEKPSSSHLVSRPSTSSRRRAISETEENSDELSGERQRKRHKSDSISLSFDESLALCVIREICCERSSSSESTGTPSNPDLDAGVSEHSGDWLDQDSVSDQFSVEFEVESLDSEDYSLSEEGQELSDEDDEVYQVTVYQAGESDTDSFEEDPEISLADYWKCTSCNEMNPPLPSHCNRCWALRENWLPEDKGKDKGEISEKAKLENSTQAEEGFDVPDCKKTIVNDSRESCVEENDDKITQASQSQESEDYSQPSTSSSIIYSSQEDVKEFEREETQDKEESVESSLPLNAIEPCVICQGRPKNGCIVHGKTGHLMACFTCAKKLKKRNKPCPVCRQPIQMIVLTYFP

The first assay concerns the target MDM2 (Homo sapiens, UniProt Q00987). The experiment in a line: MDM2 binding screen of Libraries 3 and 4: displacement of fluorescent probe F-M8 at 750 nM macrocycle. As to conditions: Panel b, Library 3: 63 scaffolds combinatorially acylated with 15 carboxylic acids at 30 picomole scale; displacement of fluorescent peptide probe; macrocycle 750 nM. Put shortly: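 Competition with nutlin-3a was run using the fluorescein conjugate. Library members came from scaffolds reacted 6 h at room temperature with carboxylic acids (20 equiv.), HBTU and DABCO in DMSO. Quenching was overnight in Tris-Cl pH 7.4 buffer with 0.01% Tween20.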
In the case of `Cn1cc(C[C@@H]2NC(=O)[C@@H](CNC(=O)c3cccc(Oc4ccccc4)c3)NC(=O)[C@H]3CCCN(C3)C(=O)CCSSCCNC2=O)c2ccccc21` [X-Nip-D-Dap-Me-Trp + Acid 111], the “fraction of fluorescent probe displaced” value is 0.048.

For `Cn1cc(C[C@@H]2NC(=O)[C@@H](CNC(=O)/C=C/c3ccc4ccccc4c3)NC(=O)[C@H]3CCCN(C3)C(=O)CCSSCCNC2=O)c2ccccc21` [X-Nip-D-Dap-Me-Trp + Acid 112], the “fraction of fluorescent probe displaced” value came to 0.021.

With `Cn1cc(C[C@@H]2NC(=O)[C@@H](CNC(=O)CCS(=O)(=O)c3ccccc3)NC(=O)[C@H]3CCCN(C3)C(=O)CCSSCCNC2=O)c2ccccc21` [X-Nip-D-Dap-Me-Trp + Acid 114], the “fraction of fluorescent probe displaced” value came out at 0.015.

Turning to `Cn1cc(C[C@@H]2NC(=O)[C@@H](CNC(=O)C3COc4ccccc4O3)NC(=O)[C@H]3CCCN(C3)C(=O)CCSSCCNC2=O)c2ccccc21` (stereo partly drawn) [X-Nip-D-Dap-Me-Trp + Acid 115], the “fraction of fluorescent probe displaced” value is -0.012.

For `CN1C(=O)[C@@H](CNC(=O)c2ccc(Cl)s2)NC(=O)[C@H]2CCCN(C2)C(=O)CCSSCCNC(=O)[C@@H]1Cc1c[nH]c2ccccc12` [X-Nip-D-Dap-NMe-Trp + Acid 14], the “fraction of fluorescent probe displaced” value came to 0.00133.

`CN1C(=O)[C@@H](CNC(=O)c2ccc(Cl)cc2)NC(=O)[C@H]2CCCN(C2)C(=O)CCSSCCNC(=O)[C@@H]1Cc1c[nH]c2ccccc12` [X-Nip-D-Dap-NMe-Trp + Acid 25]: the “fraction of fluorescent probe displaced” value was 0.00133.

In the case of `CN1C(=O)[C@@H](CNC(=O)/C=C/c2ccncc2)NC(=O)[C@H]2CCCN(C2)C(=O)CCSSCCNC(=O)[C@@H]1Cc1c[nH]c2ccccc12` [X-Nip-D-Dap-NMe-Trp + Acid 106], the “fraction of fluorescent probe displaced” value is -0.00844.

Take `CN1C(=O)[C@@H](CNC(=O)c2ccc3ccccc3c2)NC(=O)[C@H]2CCCN(C2)C(=O)CCSSCCNC(=O)[C@@H]1Cc1c[nH]c2ccccc12` [X-Nip-D-Dap-NMe-Trp + Acid 107]: the “fraction of fluorescent probe displaced” value was 0.031.

Take `CN1C(=O)[C@@H](CNC(=O)/C=C/c2ccc(OCc3ccccc3)cc2)NC(=O)[C@H]2CCCN(C2)C(=O)CCSSCCNC(=O)[C@@H]1Cc1c[nH]c2ccccc12` [X-Nip-D-Dap-NMe-Trp + Acid 110]: the “fraction of fluorescent probe displaced” value is reported as -0.00533.

Turning to `CN1C(=O)[C@@H](CNC(=O)CCS(=O)(=O)c2ccccc2)NC(=O)[C@H]2CCCN(C2)C(=O)CCSSCCNC(=O)[C@@H]1Cc1c[nH]c2ccccc12` [X-Nip-D-Dap-NMe-Trp + Acid 114], the “fraction of fluorescent probe displaced” value was determined as 0.008.

Turning to `O=C(NC[C@H]1NC(=O)[C@H]2CCCN(C2)C(=O)CCSSCCNC(=O)[C@H](Cc2c[nH]c3ccccc23)NC1=O)c1ccc(Cl)cc1` [X-Nip-D-Dap-Trp + Acid 25], the “fraction of fluorescent probe displaced” value was -0.00533.

Consider `O=C(/C=C/c1ccncc1)NC[C@H]1NC(=O)[C@H]2CCCN(C2)C(=O)CCSSCCNC(=O)[C@H](Cc2c[nH]c3ccccc23)NC1=O` [X-Nip-D-Dap-Trp + Acid 106], for which the “fraction of fluorescent probe displaced” value is -0.002.

With `O=C(NC[C@H]1NC(=O)[C@H]2CCCN(C2)C(=O)CCSSCCNC(=O)[C@H](Cc2c[nH]c3ccccc23)NC1=O)c1cccc(Oc2ccccc2)c1` [X-Nip-D-Dap-Trp + Acid 111], the “fraction of fluorescent probe displaced” value is given as 0.008.

For the molecule `O=C(/C=C/c1ccc2ccccc2c1)NC[C@H]1NC(=O)[C@H]2CCCN(C2)C(=O)CCSSCCNC(=O)[C@H](Cc2c[nH]c3ccccc23)NC1=O` [X-Nip-D-Dap-Trp + Acid 112], the “fraction of fluorescent probe displaced” value is -0.012.

Regarding `CC(Oc1cccc(Cl)c1)C(=O)NC[C@H]1NC(=O)[C@H]2CCCN(C2)C(=O)CCSSCCNC(=O)[C@H](Cc2c[nH]c3ccccc23)NC1=O` (stereo partly drawn) [X-Nip-D-Dap-Trp + Acid 113], the “fraction of fluorescent probe displaced” value is -0.019.

`O=C(CCS(=O)(=O)c1ccccc1)NC[C@H]1NC(=O)[C@H]2CCCN(C2)C(=O)CCSSCCNC(=O)[C@H](Cc2c[nH]c3ccccc23)NC1=O` [X-Nip-D-Dap-Trp + Acid 114]: the “fraction of fluorescent probe displaced” value is -0.00533.

Turning to `O=C(NC[C@@H]1NC(=O)[C@H]2CCCN(C2)C(=O)CCSSCCNC(=O)[C@H](Cc2cccc3ccccc23)NC1=O)c1ccc(Cl)s1` [X-Nip-Dap-1-NaI + Acid 14], the “fraction of fluorescent probe displaced” value was determined as 0.028.

On to `O=C(NC[C@@H]1NC(=O)[C@H]2CCCN(C2)C(=O)CCSSCCNC(=O)[C@H](Cc2cccc3ccccc23)NC1=O)c1ccc2ccccc2c1` [X-Nip-Dap-1-NaI + Acid 107], for which the “fraction of fluorescent probe displaced” value was found to be 0.056.

Take `O=C(/C=C/c1ccc(Cl)cc1)NC[C@@H]1NC(=O)[C@H]2CCCN(C2)C(=O)CCSSCCNC(=O)[C@H](Cc2cccc3ccccc23)NC1=O` [X-Nip-Dap-1-NaI + Acid 108]: the “fraction of fluorescent probe displaced” value is given as 0.041.

In the case of `O=C(/C=C/c1ccc(OCc2ccccc2)cc1)NC[C@@H]1NC(=O)[C@H]2CCCN(C2)C(=O)CCSSCCNC(=O)[C@H](Cc2cccc3ccccc23)NC1=O` [X-Nip-Dap-1-NaI + Acid 110], the “fraction of fluorescent probe displaced” value turned out to be 0.008.

For `O=C(/C=C/c1ccc2ccccc2c1)NC[C@@H]1NC(=O)[C@H]2CCCN(C2)C(=O)CCSSCCNC(=O)[C@H](Cc2cccc3ccccc23)NC1=O` [X-Nip-Dap-1-NaI + Acid 112], the “fraction of fluorescent probe displaced” value stood at 0.095.

Consider `CC(Oc1cccc(Cl)c1)C(=O)NC[C@@H]1NC(=O)[C@H]2CCCN(C2)C(=O)CCSSCCNC(=O)[C@H](Cc2cccc3ccccc23)NC1=O` (stereo partly drawn) [X-Nip-Dap-1-NaI + Acid 113], for which the “fraction of fluorescent probe displaced” value is reported as -0.019.

As for `O=C(NC[C@@H]1NC(=O)[C@H]2CCCN(C2)C(=O)CCSSCCNC(=O)[C@H](Cc2ccc3ccccc3c2)NC1=O)c1ccc(Cl)s1` [X-Nip-Dap-2-Nal + Acid 14], the “fraction of fluorescent probe displaced” value was determined as 0.015.

`O=C(/C=C/c1ccc(Cl)cc1)NC[C@@H]1NC(=O)[C@H]2CCCN(C2)C(=O)CCSSCCNC(=O)[C@H](Cc2ccc3ccccc3c2)NC1=O` [X-Nip-Dap-2-Nal + Acid 108]: the “fraction of fluorescent probe displaced” value is on record as 0.021.

In the case of `O=C(/C=C/c1ccc(OCc2ccccc2)cc1)NC[C@@H]1NC(=O)[C@H]2CCCN(C2)C(=O)CCSSCCNC(=O)[C@H](Cc2ccc3ccccc3c2)NC1=O` [X-Nip-Dap-2-Nal + Acid 110], the “fraction of fluorescent probe displaced” value is 0.021.

For the molecule `O=C(/C=C/c1ccc2ccccc2c1)NC[C@@H]1NC(=O)[C@H]2CCCN(C2)C(=O)CCSSCCNC(=O)[C@H](Cc2ccc3ccccc3c2)NC1=O` [X-Nip-Dap-2-Nal + Acid 112], the “fraction of fluorescent probe displaced” value was found to be 0.021.

The assay is the same for the next values; noted with them: Panel c, Library 4: best nine scaffolds and 15 additional carboxylic acids; displacement of fluorescent probe.
Consider `O=C(/C=C/c1ccc(F)cc1)NC[C@@H]1NC(=O)[C@H]2CCCN(C2)C(=O)CCSSCCNC(=O)[C@H](Cc2cccc3ccccc23)NC1=O` [X-Nip-Dap-1-NaI + Acid 116], for which the “fraction of fluorescent probe displaced” value came out at 0.052.

In the case of `CCOc1ccc(/C=C/C(=O)NC[C@@H]2NC(=O)[C@H]3CCCN(C3)C(=O)CCSSCCNC(=O)[C@H](Cc3cccc4ccccc34)NC2=O)cc1` [X-Nip-Dap-1-NaI + Acid 117], the “fraction of fluorescent probe displaced” value is 0.069.

In the case of `CCCOc1ccc(/C=C/C(=O)NC[C@@H]2NC(=O)[C@H]3CCCN(C3)C(=O)CCSSCCNC(=O)[C@H](Cc3cccc4ccccc34)NC2=O)cc1` [X-Nip-Dap-1-NaI + Acid 118], the “fraction of fluorescent probe displaced” value was -0.00464.

With `O=C(/C=C/c1ccc(Cl)c(Cl)c1)NC[C@@H]1NC(=O)[C@H]2CCCN(C2)C(=O)CCSSCCNC(=O)[C@H](Cc2cccc3ccccc23)NC1=O` [X-Nip-Dap-1-NaI + Acid 119], the “fraction of fluorescent probe displaced” value is given as 0.0035.

`O=C(/C=C/c1cccc(Cl)c1)NC[C@@H]1NC(=O)[C@H]2CCCN(C2)C(=O)CCSSCCNC(=O)[C@H](Cc2cccc3ccccc23)NC1=O` [X-Nip-Dap-1-NaI + Acid 121]: the “fraction of fluorescent probe displaced” value is recorded as -0.00464.

Turning to `O=C(/C=C/c1cccc(C(F)(F)F)c1)NC[C@@H]1NC(=O)[C@H]2CCCN(C2)C(=O)CCSSCCNC(=O)[C@H](Cc2cccc3ccccc23)NC1=O` [X-Nip-Dap-1-NaI + Acid 122], the “fraction of fluorescent probe displaced” value turned out to be 0.0035.

As to `CC(=Cc1ccccc1)C(=O)NCC1NC(=O)C2CCCN(C2)C(=O)CCSSCCNC(=O)C(Cc2cccc3ccccc23)NC1=O` (stereo not drawn) [X-Nip-Dap-1-NaI + Acid 123], the “fraction of fluorescent probe displaced” value is -0.013.

As for `CC(C)c1ccc(/C=C/C(=O)NC[C@@H]2NC(=O)[C@H]3CCCN(C3)C(=O)CCSSCCNC(=O)[C@H](Cc3cccc4ccccc34)NC2=O)cc1` [X-Nip-Dap-1-NaI + Acid 127], the “fraction of fluorescent probe displaced” value worked out at 0.0035.

For `O=C(NC[C@@H]1NC(=O)[C@H]2CCCN(C2)C(=O)CCSSCCNC(=O)[C@H](Cc2cccc3ccccc23)NC1=O)c1cnc2ccccc2n1` [X-Nip-Dap-1-NaI + Acid 130], the “fraction of fluorescent probe displaced” value came to 0.020.

Regarding `O=C(/C=C/c1ccc(F)cc1)NC[C@@H]1NC(=O)[C@H]2CCCN(C2)C(=O)CCSSCCNC(=O)[C@H](Cc2ccc3ccccc3c2)NC1=O` [X-Nip-Dap-2-Nal + Acid 116], the “fraction of fluorescent probe displaced” value was found to be 0.052.

Consider `CCOc1ccc(/C=C/C(=O)NC[C@@H]2NC(=O)[C@H]3CCCN(C3)C(=O)CCSSCCNC(=O)[C@H](Cc3ccc4ccccc4c3)NC2=O)cc1` [X-Nip-Dap-2-Nal + Acid 117], for which the “fraction of fluorescent probe displaced” value amounted to 0.069.

`CCCOc1ccc(/C=C/C(=O)NC[C@@H]2NC(=O)[C@H]3CCCN(C3)C(=O)CCSSCCNC(=O)[C@H](Cc3ccc4ccccc4c3)NC2=O)cc1` [X-Nip-Dap-2-Nal + Acid 118]: the “fraction of fluorescent probe displaced” value turned out to be 0.012.

Take `O=C(/C=C/c1ccc(Cl)c(Cl)c1)NC[C@@H]1NC(=O)[C@H]2CCCN(C2)C(=O)CCSSCCNC(=O)[C@H](Cc2ccc3ccccc3c2)NC1=O` [X-Nip-Dap-2-Nal + Acid 119]: the “fraction of fluorescent probe displaced” value was 0.020.

Turning to `O=C(/C=C/c1cccc(C(F)(F)F)c1)NC[C@@H]1NC(=O)[C@H]2CCCN(C2)C(=O)CCSSCCNC(=O)[C@H](Cc2ccc3ccccc3c2)NC1=O` [X-Nip-Dap-2-Nal + Acid 122], the “fraction of fluorescent probe displaced” value was found to be 0.012.
